Earlier results, collected in patent US6800456B2, “Modified forms of hepatitis C NS3 protease for facilitating inhibitor screening and structural studies of protease:inhibitor complexes” (Bristol-Myers Squibb Company, priority 1999, dated 2004).
Square brackets hold non-standard residues; d marks the D form. Cha = N[C@@H](CC1CCCCC1)C(=O)O

Molecular target: HCV protease (Hepatitis C virus genotype 1a, UniProt P26664)
Conditions: Ingallinella et al., Biochemistry 37, 8906-8914 (1998)

Chain of HCV protease (P26664 1027-1206 limits assumed, other chains not shown): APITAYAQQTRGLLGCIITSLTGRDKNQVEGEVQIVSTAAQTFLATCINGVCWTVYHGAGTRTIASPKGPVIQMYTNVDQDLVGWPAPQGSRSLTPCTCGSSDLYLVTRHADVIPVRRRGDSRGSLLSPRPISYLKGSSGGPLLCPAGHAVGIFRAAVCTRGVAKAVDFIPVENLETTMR

For Ac-D[dE]LI[Cha]C-OH, the IC50 is listed as 15 nM.
